Data as given in patent US20220017516A1, “LOX INHIBITORS” (THE INSTITUTE OF CANCER RESEARCH: ROYAL CANCER HOSPITAL, priority 2018, published 2022).
Where two headings read alike, the source gives them in different places.

Key:
LOXL2 = target: T1, LOXL2 (Homo sapiens, UniProt Q9Y4K0); test: LOX isoform activity assay (ROS Glo), LOXL2; type: biochemical
T1 construct: purchased R&D Systems/Bio-techne
T1 sequence (Q9Y4K0 26-774): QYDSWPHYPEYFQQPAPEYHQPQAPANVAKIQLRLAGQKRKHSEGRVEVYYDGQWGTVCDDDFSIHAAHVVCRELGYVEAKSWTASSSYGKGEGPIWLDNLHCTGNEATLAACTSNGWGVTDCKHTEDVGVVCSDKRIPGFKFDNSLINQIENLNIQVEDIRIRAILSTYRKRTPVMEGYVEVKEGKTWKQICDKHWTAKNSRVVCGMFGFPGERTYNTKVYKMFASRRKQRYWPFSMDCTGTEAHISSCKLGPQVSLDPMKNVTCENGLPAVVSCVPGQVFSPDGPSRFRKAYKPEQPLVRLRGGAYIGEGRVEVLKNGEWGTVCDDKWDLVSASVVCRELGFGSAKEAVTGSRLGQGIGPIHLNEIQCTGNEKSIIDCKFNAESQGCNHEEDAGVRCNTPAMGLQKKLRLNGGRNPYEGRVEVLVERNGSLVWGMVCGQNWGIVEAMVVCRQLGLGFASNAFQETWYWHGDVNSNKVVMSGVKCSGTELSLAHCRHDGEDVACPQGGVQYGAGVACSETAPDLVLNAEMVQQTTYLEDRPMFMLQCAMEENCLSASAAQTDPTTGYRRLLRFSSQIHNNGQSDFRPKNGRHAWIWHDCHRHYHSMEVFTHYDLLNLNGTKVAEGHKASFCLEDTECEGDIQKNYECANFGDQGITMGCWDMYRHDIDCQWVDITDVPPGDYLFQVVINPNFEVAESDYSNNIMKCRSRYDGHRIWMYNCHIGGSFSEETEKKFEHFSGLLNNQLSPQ
Summary of the method: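 Human LOXL2 in 100 mM CHES pH 9 (1 M urea, 100 mM NaCl, 1 mM MgCl2, 0.5% BSA, 0.05% pluronic F-127) preincubated with compound (0.003–100 μM final) for 20 min, 1 h or 20 h. Cadaverine 19.56 mM and H2O2 25 μM added, 1 h at RT. Luminescence (ROS-Glo luciferin detection) fitted to IC50.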

[1] = target: T2, monoamine oxidase A (MAO-A) (Homo sapiens, UniProt P21397); test: Amine oxidase activity assay (MAO-Glo), MAO-A; type: biochemical
T2 construct: purchased Promega V1452
T2 sequence (P21397 1-527): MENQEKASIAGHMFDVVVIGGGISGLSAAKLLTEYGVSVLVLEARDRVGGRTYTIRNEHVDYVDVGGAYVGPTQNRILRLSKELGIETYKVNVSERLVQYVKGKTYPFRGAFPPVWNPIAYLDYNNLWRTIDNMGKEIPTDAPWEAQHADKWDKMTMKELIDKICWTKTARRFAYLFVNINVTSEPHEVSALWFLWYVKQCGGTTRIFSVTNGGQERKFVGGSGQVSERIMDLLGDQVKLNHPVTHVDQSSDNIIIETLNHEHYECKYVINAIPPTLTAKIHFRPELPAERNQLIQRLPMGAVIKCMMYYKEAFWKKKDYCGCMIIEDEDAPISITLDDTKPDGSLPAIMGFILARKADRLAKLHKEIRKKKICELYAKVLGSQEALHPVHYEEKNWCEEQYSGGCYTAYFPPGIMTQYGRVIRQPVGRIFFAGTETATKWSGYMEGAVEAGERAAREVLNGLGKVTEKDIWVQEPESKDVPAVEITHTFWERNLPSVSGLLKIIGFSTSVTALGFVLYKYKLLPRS
Procedure: The Promega MAO-Glo assay kit (V1402) was used to assess monoamine oxidase A (MAO-A) and monoamine oxidase B (MAO-B) activity. MAO substrate was prepared at 80 μM with the specific MAO-A/B reaction buffer. Overall, 0.5 μl test compound was added to 25 μl MAO substrate at 100, 30, 10, 3, 1, 0.3, 0.1, 0.03, 0.01 and 0.003 μM (final concentration) in a 96-well white, flat bottom plate. Overall, 25 μl of 1:520 dilution of MAO-A enzyme (Promega, V1452) or 25 μl of 1:52 dilution of MAO-B enzyme (Sigma, M7441) in specific MAO-A/B reaction buffer was added to each well (enzyme prepared at 2×final concentration) and plates were incubated for 1 h at room temperature. Finally, 50 μl per well luciferin detection reagent was added and plates were incubated for 20 min at room temperature, protected from light. Luminescence was measured with an integration time of 500 ms per well using a SpectaMax M5 plate reader and resulting IC50 values were calculated using GraphPad Prism software.
In another setting, the DAO and MAO assays were performed in 384-well plates (Greiner) and test compound was added using a Labcyte Echo™ Acoustic Handler for the same final concentrations as in the 96-well setting. Luminescence was measured with BMG LABTECH PHERAstar FS plate reader.

[2] = 20 hr incubation with enzyme; read-out: LOXL2 IC50 c) 20 hr
[3] = 1 hr incubation with enzyme; read-out: LOXL2 IC50 b) 1 hr

SMILES	IC50 (LOXL2; [2])	IC50 [1]	IC50 (LOXL2; [3])	IC50 (LOXL2; 20 min incubation with enzyme; read-out: LOXL2 IC50 a) 20 min)
CCOc1ccc(N2C[C@H]3CN(CCS(=O)(=O)CCN)C[C@@H]2C(C)(C)C3)cc1 [Example 1, 2-((2-((1R,5S)-6-(4-ethoxyphenyl)-9,9-dimethyl-3,6-diazabicyclo[3.2.2]nonan-3-yl)ethyl)sulfonyl)ethan-1-amine]	1600 nM	> 100 µM		
CCOc1ccc(N2C[C@H]3CN(C(=O)CS(=O)(=O)CCN)C[C@@H]2C(C)(C)C3)cc1 [Example 7, 2-((2-aminoethyl)sulfonyl)-1-((1S,5S)-6-(4-ethoxyphenyl)-9,9-dimethyl-3,6-diazabicyclo[3.2.2]nonan-3-yl)ethan-1-one]	270 nM	> 100 µM		
NCCS(=O)(=O)CC(=O)N1CCN(c2ccccc2)CC1 [Example 13, 2-((2-Aminoethyl)-sulfonyl)-1-(4-phenylpiperazin-1-yl)ethan-1-one]		> 100 µM	400 nM	
CCOC(=O)CCC(C(=O)N1C[C@@H]2C[C@H]1CN2c1ccc(OCC)cc1)S(=O)(=O)CCN (stereo partly drawn) [Example 41, ethyl 4-((2-aminoethyl)sulfonyl)-5-((1S,4S)-5-(4-ethoxyphenyl)-2,5-diazabicyclo[2.2.1]heptan-2-yl)-5-oxopentanoate]		> 100 µM	3100 nM	
CCOc1ccc(N2C[C@H]3CN(C(=O)NCCS(=O)(=O)CCN)C[C@@H]2C(C)(C)C3)cc1 [Example 38, (1S,5S)—N-(2-((2-aminoethyl)sulfonyl)ethyl)-6-(4-ethoxyphenyl)-9,9-dimethyl-3,6-diazabicyclo[3.2.2]nonane-3-carboxamide]			580 nM	
CCOc1ccc(N2C[C@@H]3C[C@H]2CN3C(=O)C2(S(=O)(=O)CCN)CC2)cc1 [Example 42, (1-((2-Aminoethyl)sulfonyl)cyclopropyl)((1S,4S)-5-(4-ethoxyphenyl)-2,5-diazabicyclo[2.2.1]heptan-2-yl)methanone]		> 100 µM	11000 nM	
NCCS(=O)(=O)CC(=O)N1CCN(c2ncccn2)CC1 [Example 12, 2-((2-Aminoethyl)-sulfonyl)-1-(4-(pyrimidin-2-yl)-piperazin-1-yl)ethan-1-one]		> 100 µM	430 nM	
CCOc1ccc(N2C[C@@H]3C[C@H]2CN3C(=O)CS(=O)(=O)CCN)cc1 [Example 8, 2-((2-aminoethyl)-sulfonyl)-1-((1S,4S)-5-(4-ethoxyphenyl)-2,5-diazabicyclo-[2.2.1]heptan-2-yl)-ethan-1-one]	150 nM	> 100 µM		
Cc1ccc(S(=O)(=O)N2C[C@H]3CN(C(=O)CS(=O)(=O)CCN)C[C@H]3C2)cc1 [Example 11, 2-((2-aminoethyl)-sulfonyl)-1-(cis-5-tosylhexahydro-pyrrolo[3,4-c]pyrrol-2(1H)-yl)ethan-1-one]		> 100 µM	170 nM	
CCOc1ccc(N2C[C@@H]3C[C@H]2CN3CCS(=O)(=O)CCN)cc1 [Example 2, 2-((2-((1S,4S)-5-(4-ethoxyphenyl)-2,5-diazabicyclo[2.2.1]heptan-2-yl)ethyl)sulfonyl)-ethan-1-amine]	400 nM	> 100 µM		
CCOc1ccc(N2C[C@H]3CN(c4ccc(S(=O)(=O)CCN)cc4)C[C@@H]2C(C)(C)C3)cc1 [Example 33, 2-((4-((1R,5S)-6-(4-ethoxyphenyl)-9,9-dimethyl-3,6-diazabicyclo [3.2.2]nonan-3-yl)phenyl)sulfonyl)ethan-1-amine]	16000 nM	> 100 µM		
CCOc1ccc(N2CC3CN(CCS(=O)(=O)CCN)CC3C2)cc1 (centres unmarked) [Example 4, 2-((2-(5-(4-ethoxyphenyl)hexahydropyrolo [3,4-c]pyrrol-2(1H)-yl)ethyl)sulfonyl)ethan-1-amine]		> 100 µM		7300 nM
